Source: patent US4720506A, “Immunomodulating agent” (Nippon Shinyaku Company, Limited, priority 1982, dated 1988)

Legend:
[1] = system: Methylated Human Albumin induced Delayed Type Hypersensitivity; test: Methylated human albumin induced delayed type hypersensitivity (footpad swelling); format: in vivo, mice (C3H); settings: 4 days; for response vs control in vivo at 30 mg/kg / response vs control in vivo at 100 mg/kg / response vs control in vivo at 300 mg/kg: Mus musculus, 96 h
Description: Effect on Methylated Human Albumin induced Delayed Type Hypersensitivity
The medicament was administered orally for continuous 4 days including the immunization-day. On the 4th day from the immunization day, 25 μl of 0.1% methylated human albumin aqueous solution was subcutaneously injected to the footpad. After 24 hours, the thickness of the left and right footpad were measured, and the footpad swelling due to the delayed type hypersensitivity was represented as the difference between the thickness of the left and right footpad. The footpad swelling of the medicament-administration group was compared with that of physiological saline solution-administration group.

[2] = system: mice; test: Acute toxicity in mice; format: in vivo; settings: 7th day
Description: The medicament was suspended in 3% "Tween-80" and the suspension was administered orally or intraperitonealy at a dose shown in Table 1 to mice (ddY weighing 20-25 g).

[3] = system: Plaque-Forming Cells in Spleen against Sheep Erythrocytes; test: Plaque-forming cells in spleen against sheep erythrocytes in mice; format: in vivo, mice (Balb/c); settings: oral, 4 days; for PFC, % Control: vs physiological saline
Description: Effect on Plaque-forming Cells in Spleen against Sheep Erythrocytes in mice
Balb/c mice of 5 weeks old were intravenously immunized with 1×10^8 sheep erythrocytes/mouse. 5 mice were used per group. Medicament was orally administered for 4 days from the day when the mice were immunized. Mice were sacrificed on the 5th day and the numbers of plaque-forming cells (PFC) in the spleen against sheep erythrocytes were determined by Fujiwara's modified method of Cunningham's method ["Method in Immunological Experiment A" edited by Japanese Society for Immunology, page 1272 (1974)].

[4] = system: Sheep Erythrocytes induced Delayed Type Hypersensitivity; test: Sheep erythrocytes induced delayed type hypersensitivity (footpad swelling); format: in vivo, mice (ddY); settings: Table 4, oral, 4 days, 24 hours after challenge
Description: Effect on Sheep Erythrocytes induced Delayed Type Hypersensitivity
40 μl of Sheep erythrocytes adjusted to the concentration of 1×10^7 /40 μl was subcutaneously injected to the right footpad of mice (ddY weighing 25-30 g) and the medicament was administered orally for continuous 4 days including the day, on which sheep erythrocytes were administered.
On the 4th day from the administration day of sheep erythrocytes, 40 μl of sheep erythrocytes adjusted to the concentration of 5×10^8 /40 μl was subcutaneously injected to the left footpad. After 24 hours, both of the thickness of the right and left footpad were measured. Footpad swelling due to the delayed type hypersensitivity was recognized as the difference between the thickness of the left and right footpad. The footpad swelling of the medicament-administration group was compared with that of physiological saline solution-administration group (control group).

| SMILES | Footpad swelling, mean value ± standard error ([1]; Experiment 1, oral, 300 mg/kg) | response vs control in vivo at 300 mg/kg ([1]; po, Experiment 1, 300 mg/kg) | Mortality ([2]; intraperitoneal, 1,000 mg/kg) | Mortality ([2]; oral, 5,000 mg/kg) | Footpad swelling, mean value ± standard error ([1]; Experiment 2, oral, 30 mg/kg) | Footpad swelling, mean value ± standard error ([1]; Experiment 2, oral, 100 mg/kg) | Footpad swelling, mean value ± standard error ([1]; Experiment 2, oral, 300 mg/kg) | response vs control in vivo at 30 mg/kg ([1]; po, Experiment 2, 30 mg/kg) | response vs control in vivo at 100 mg/kg ([1]; po, Experiment 2, 100 mg/kg) | response vs control in vivo at 300 mg/kg ([1]; po, Experiment 2, 300 mg/kg) | % Control of footpad swelling ([4]; 100 mg/kg) | other results |
| --- | --- | --- | --- | --- | --- | --- | --- | --- | --- | --- | --- | --- |
| CCOC(=O)Cc1ccc(NC(=O)C(C)C)cc1 [Compound 6, Ethyl 4-(isobutyrylamino)phenylacetate] | 56.8 ± 2.2 × 0.01 mm | 89.7% | 0/5 | 1/5 | – | – | – | – | – | – | – | Footpad swelling, mean value ± standard error ([1]; Experiment 1, oral, 30 mg/kg): 59.0 ± 1.8 × 0.01 mm; Footpad swelling, mean value ± standard error ([1]; Experiment 1, oral, 100 mg/kg): 55.6 ± 1.2 × 0.01 mm; response vs control in vivo at 30 mg/kg ([1]; po, Experiment 1, 30 mg/kg): 93.2%; response vs control in vivo at 100 mg/kg ([1]; po, Experiment 1, 100 mg/kg): 87.8% |
| CC(C)C(=O)Nc1ccc(CC(=O)O)cc1 [Compound 13] | 58.5 ± 2.4 × 0.01 mm | 92.4% | 1/5 | 0/5 | – | – | – | – | – | – | – | Footpad swelling, mean value ± standard error ([1]; Experiment 1, oral, 30 mg/kg): 57.2 ± 1.9 × 0.01 mm; Footpad swelling, mean value ± standard error ([1]; Experiment 1, oral, 100 mg/kg): 58.2 ± 1.9 × 0.01 mm; response vs control in vivo at 30 mg/kg ([1]; po, Experiment 1, 30 mg/kg): 90.4%; response vs control in vivo at 100 mg/kg ([1]; po, Experiment 1, 100 mg/kg): 91.9% |
| CC(=O)Nc1ccc(CC(=O)O)cc1 [Compound 10, 4-Acetylaminophenylacetate] | 44.5 ± 1.6 × 0.01 mm | 70.3% | 0/5 | 0/5 | 46.1 ± 1.7 × 0.01 mm | 41.8 ± 2.5 × 0.01 mm | 42.3 ± 1.8 × 0.01 mm | 78.9% | 71.6% | 72.4% | 85.7% | PFC, mean value ± standard error ([3]; Table 2, 30 mg/kg): 116.4 ± 8.64 × 2,500/spleen; PFC, % Control ([3]; Table 2, 30 mg/kg): 181%; PFC, mean value ± standard error ([3]; Table 2, 100 mg/kg): 107.2 ± 10.5 × 2,500/spleen; PFC, % Control ([3]; Table 2, 100 mg/kg): 167%; PFC, mean value ± standard error ([3]; Table 2, 300 mg/kg): 82.2 ± 7.0 × 2,500/spleen; PFC, % Control ([3]; Table 2, 300 mg/kg): 128%; % Control of footpad swelling ([4]; 30 mg/kg): 77.0%; % Control of footpad swelling ([4]; 300 mg/kg): 71.6% |
| CC(=O)Nc1ccc(C(C)C(=O)O)cc1 (stereo not drawn) [Compound 12, 2-(4-Acetylaminophenyl)propionic acid] | – | – | 0/5 | 0/5 | 54.5 ± 1.7 × 0.01 mm | 52.1 ± 1.5 × 0.01 mm | 52.4 ± 1.9 × 0.01 mm | 93.2% | 89.2% | 89.7% | – | – |
| CCCC(=O)Nc1ccc(CC(=O)O)cc1 [Compound 14, 4-n-Butyrylaminophenylacetic acid] | – | – | 0/5 | – | 50.9 ± 2.0 × 0.01 mm | 51.8 ± 1.4 × 0.01 mm | 56.7 ± 1.5 × 0.01 mm | 87.2% | 88.7% | 97.1% | – | – |
| CCOC(=O)C(C)c1ccc(NC(C)=O)cc1 (stereo not drawn) [Compound 9, Ethyl 2-(4-acetylaminophenyl)propionate] | – | – | 0/5 | – | 51.4 ± 1.8 × 0.01 mm | 55.3 ± 2.0 × 0.01 mm | 56.0 ± 2.0 × 0.01 mm | 88% | 94.7% | 95.9% | – | Mortality ([2]; oral, 1,500 mg/kg): 0/5 |
| CCOC(=O)Cc1ccc(NC(C)=O)cc1 [Compound 4, Ethyl 4-acetylaminophenylacetate] | – | – | – | – | – | – | – | – | – | – | 93.8% | Footpad swelling, mean value ± standard error ([1]; Experiment 3, oral, 30 mg/kg): 48.3 ± 2.6 × 0.01 mm; Footpad swelling, mean value ± standard error ([1]; Experiment 3, oral, 100 mg/kg): 49.4 ± 3.5 × 0.01 mm; Footpad swelling, mean value ± standard error ([1]; Experiment 3, oral, 300 mg/kg): 56.5 ± 2.9 × 0.01 mm; response vs control in vivo at 30 mg/kg ([1]; po, Experiment 3, 30 mg/kg): 75.5%; response vs control in vivo at 100 mg/kg ([1]; po, Experiment 3, 100 mg/kg): 77.2%; response vs control in vivo at 300 mg/kg ([1]; po, Experiment 3, 300 mg/kg): 88.3%; % Control of footpad swelling ([4]; 30 mg/kg): 91.5%; % Control of footpad swelling ([4]; 300 mg/kg): 68.4% |
| Cn1cnc([N+](=O)[O-])c1Sc1ncnc2nc[nH]c12 [Azathioprine, reference compound] | – | – | – | – | – | 41.4 ± 1.5 × 0.01 mm | – | – | – | – | 49.0% | response vs control in vivo at 100 mg/kg ([1]; Experiment 2, oral, 100 mg/kg): 70.9% |
| Cc1ccc(C(=O)Nc2ccc(CC(=O)O)cc2)cc1 [Compound 15, 4-(4-Methylbenzoylamino)phenylacetic acid] | 57.4 ± 1.5 × 0.01 mm | 90.7% | 5/5 | 5/5 | – | – | – | – | – | – | – | Footpad swelling, mean value ± standard error ([1]; Experiment 1, oral, 30 mg/kg): 54.2 ± 1.7 × 0.01 mm; Footpad swelling, mean value ± standard error ([1]; Experiment 1, oral, 100 mg/kg): 56.7 ± 1.8 × 0.01 mm; response vs control in vivo at 30 mg/kg ([1]; po, Experiment 1, 30 mg/kg): 85.6%; response vs control in vivo at 100 mg/kg ([1]; po, Experiment 1, 100 mg/kg): 89.6%; Mortality ([2]; intraperitoneal, 300 mg/kg): 0/5; Mortality ([2]; oral, 1,000 mg/kg): 0/5 |
| CCOC(=O)Cc1ccc(N)cc1 [Compound 1, Ethyl p-aminophenylacetate] | – | – | 1/5 | – | – | – | – | – | – | – | 85.9% | PFC, mean value ± standard error ([3]; Table 3, 30 mg/kg): 89.4 ± 10.4 × 3,125/spleen; PFC, % Control ([3]; Table 3, 30 mg/kg): 135%; PFC, mean value ± standard error ([3]; Table 3, 100 mg/kg): 60.6 ± 8.6 × 3,125/spleen; PFC, % Control ([3]; Table 3, 100 mg/kg): 91%; PFC, mean value ± standard error ([3]; Table 3, 300 mg/kg): 82.0 ± 5.2 × 3,125/spleen; PFC, % Control ([3]; Table 3, 300 mg/kg): 123%; Mortality ([2]; oral, 3,000 mg/kg): 0/5; % Control of footpad swelling ([4]; 30 mg/kg): 79.8%; % Control of footpad swelling ([4]; 300 mg/kg): 77.9% |
| CC(=O)Nc1ccc(C(C)(C)C(=O)O)cc1 [Compound 11, 2-(4-Acetylaminophenyl)-2-methylpropionic acid] | – | – | 0/5 | 0/5 | 54.5 ± 1.7 × 0.01 mm | 55.4 ± 1.8 × 0.01 mm | 51.3 ± 2.3 × 0.01 mm | 93.3% | 94.9% | 87.8% | – | – |
